Reference: publication PMC8843100, “Development of newly synthesised quinazolinone-based CDK2 inhibitors with potent efficacy against melanoma” (Journal of Enzyme Inhibition and Medicinal Chemistry, 2022)

Assays:
A498 = assay: NCI-60 single dose screen, sulforhodamine B; format: cell-based, human; settings: Renal cancer A498; single dose 10^−5 M
Description: (§1) In this research, all of the newly synthesised quinazolinones were subjected to in vitro anticancer screening by the National Cancer Institute (USA) against 60 different human cell lines including leukaemia, non-small cell lung cancer, colon cancer, CNS cancer, melanoma, ovarian cancer, renal cancer, prostate cancer, and breast cancer. The tested compounds were evaluated at a single dose (10^−5 M). […] Regarding the benzenesulfonamide counterparts, the introduction of an electron-withdrawing group on the benzenesulfonamide moiety increased the inhibitory activity on the glioblastoma cell line SNB-75 as depicted by the chloro derivative 5c (GI% = 63.09) which was higher than that of the unsubstituted derivative 5a (GI% = 40.06) and the methyl derivative 5b (GI% = 33.03).
(§2) 1. Cytotoxicity screening against a panel of 60 human tumor cell lines
(§3) All the compounds were selected for NCI-60 Human Tumor Cell Lines Screen by the Developmental Therapeutics Program (DTP) at the National Cancer Institute (NCI), Maryland, USA. The operation of this screen utilizes 60 different human tumor cell lines, representing leukemia, non-small-cell lung cancer, colon cancer, CNS cancer, melanoma, ovarian cancer, renal cancer, prostate cancer and breas t cancer.
(§4) The compounds were supplied as dry powder and a single concentration is tested in all 60 cell lines at a single dose of 10 µM solution in dimethyl sulfoxide (DMSO) using Sulforhodamine B assay. Briefly, cells are seeded in 96 well plates at an appropriate density and incubated for 1 day. After 1 day, some of the plates are processed to determine the density time zero. To the remaining plates, compounds are added at 10 µM concentration. Plates are incubated a further 2 days, then fixed and staine d with sulphorhodamine B. Growth inhibition is calculated relative to cells without drug treatment and the time zero control. The use of a time zero control allows the determination of cell kill as well as net growth inhibition. […]

BT-549 = assay: NCI-60 single dose screen, sulforhodamine B; format: cell-based, human; settings: Breast cancer BT-549; single dose 10^−5 M
Description: as §1, §2, §3, §4

COLO 205 = assay: NCI-60 single dose screen, sulforhodamine B; format: cell-based, human; settings: Colon cancer COLO 205; single dose 10^−5 M
Description: as §1, §2, §3, §4

DU-145 = assay: NCI-60 single dose screen, sulforhodamine B; format: cell-based, human; settings: Prostate cancer DU-145; single dose 10^−5 M
Description: as §1, §2, §3, §4

EKVX = assay: NCI-60 single dose screen, sulforhodamine B; format: cell-based, human; settings: Non-small cell lung cancer EKVX; single dose 10^−5 M
Description: as §1, §2, §3, §4

HCT-116 = assay: NCI-60 single dose screen, sulforhodamine B; format: cell-based, human; settings: Colon cancer HCT-116; single dose 10^−5 M
Description: as §1, §2, §3, §4

HOP-62 = assay: NCI-60 single dose screen, sulforhodamine B; format: cell-based, human; settings: Non-small cell lung cancer HOP-62; single dose 10^−5 M
Description: as §1, §2, §3, §4

HS 578T = assay: NCI-60 single dose screen, sulforhodamine B; format: cell-based, human; settings: Breast cancer HS 578T; single dose 10^−5 M
Description: as §1, §2, §3, §4

HT29 = assay: NCI-60 single dose screen, sulforhodamine B; format: cell-based, human; settings: Colon cancer HT29; single dose 10^−5 M
Description: as §1, §2, §3, §4

K-562 = assay: NCI-60 single dose screen, sulforhodamine B; format: cell-based, human; settings: Leukaemia K-562; single dose 10^−5 M
Description: as §1, §2, §3, §4

KM12 = assay: NCI-60 single dose screen, sulforhodamine B; format: cell-based, human; settings: Colon cancer KM12; single dose 10^−5 M
Description: as §1, §2, §3, §4

LOX IMVI = assay: NCI-60 single dose screen, sulforhodamine B; format: cell-based, human; settings: Melanoma LOX IMVI; single dose 10^−5 M
Description: as §1, §2, §3, §4

MDA-MB-231/ATCC = assay: NCI-60 single dose screen, sulforhodamine B; format: cell-based, human; settings: Breast cancer MDA-MB-231/ATCC; single dose 10^−5 M
Description: as §1, §2, §3, §4

MOLT-4 = assay: NCI-60 single dose screen, sulforhodamine B; format: cell-based, human; settings: Leukaemia MOLT-4; single dose 10^−5 M
Description: as §1, §2, §3, §4

NCI-H226 = assay: NCI-60 single dose screen, sulforhodamine B; format: cell-based, human; settings: Non-small cell lung cancer NCI-H226; single dose 10^−5 M
Description: as §1, §2, §3, §4

NCI-H322M = assay: NCI-60 single dose screen, sulforhodamine B; format: cell-based, human; settings: Non-small cell lung cancer NCI-H322M; single dose 10^−5 M
Description: as §1, §2, §3, §4

NCI-H460 = assay: NCI-60 single dose screen, sulforhodamine B; format: cell-based, human; settings: Non-small cell lung cancer NCI-H460; single dose 10^−5 M
Description: as §1, §2, §3, §4

NCI-H522 = assay: NCI-60 single dose screen, sulforhodamine B; format: cell-based, human; settings: Non-small cell lung cancer NCI-H522; single dose 10^−5 M
Description: as §1, §2, §3, §4

OVCAR-3 = assay: NCI-60 single dose screen, sulforhodamine B; format: cell-based, human; settings: Ovarian cancer OVCAR-3; single dose 10^−5 M
Description: as §1, §2, §3, §4

OVCAR-5 = assay: NCI-60 single dose screen, sulforhodamine B; format: cell-based, human; settings: Ovarian cancer OVCAR-5; single dose 10^−5 M
Description: as §1, §2, §3, §4

SF-539 = assay: NCI-60 single dose screen, sulforhodamine B; format: cell-based, human; settings: CNS cancer SF-539; single dose 10^−5 M
Description: as §1, §2, §3, §4

SK-MEL-28 = assay: NCI-60 single dose screen, sulforhodamine B; format: cell-based, human; settings: Melanoma SK-MEL-28; single dose 10^−5 M
Description: as §1, §2, §3, §4

SNB-19 = assay: NCI-60 single dose screen, sulforhodamine B; format: cell-based, human; settings: CNS cancer SNB-19; single dose 10^−5 M
Description: as §1, §2, §3, §4

SNB-75 = assay: NCI-60 single dose screen, sulforhodamine B; format: cell-based, human; settings: CNS cancer SNB-75; single dose 10^−5 M
Description: as §1, §2, §3, §4

SR = assay: NCI-60 single dose screen, sulforhodamine B; format: cell-based, human; settings: Leukaemia SR; single dose 10^−5 M
Description: as §1, §2, §3, §4

SW-620 = assay: NCI-60 single dose screen, sulforhodamine B; format: cell-based, human; settings: Colon cancer SW-620; single dose 10^−5 M
Description: as §1, §2, §3, §4

TK-10 = assay: NCI-60 single dose screen, sulforhodamine B; format: cell-based, human; settings: Renal cancer TK-10; single dose 10^−5 M
Description: as §1, §2, §3, §4

U251 = assay: NCI-60 single dose screen, sulforhodamine B; format: cell-based, human; settings: CNS cancer U251; single dose 10^−5 M
Description: as §1, §2, §3, §4

UACC-257 = assay: NCI-60 single dose screen, sulforhodamine B; format: cell-based, human; settings: Melanoma UACC-257; single dose 10^−5 M
Description: as §1, §2, §3, §4

UACC-62 = assay: NCI-60 single dose screen, sulforhodamine B; format: cell-based, human; settings: Melanoma UACC-62; single dose 10^−5 M
Description: as §1, §2, §3, §4

UO-31 = assay: NCI-60 single dose screen, sulforhodamine B; format: cell-based, human; settings: Renal cancer UO-31; single dose 10^−5 M
Description: as §1, §2, §3, §4

Row | SMILES | GI% at 10^−5 M (A498) | GI% at 10^−5 M (BT-549) | GI% at 10^−5 M (COLO 205) | GI% at 10^−5 M (DU-145) | GI% at 10^−5 M (EKVX) [%] | GI% at 10^−5 M (HCT-116) | GI% at 10^−5 M (HOP-62) | GI% at 10^−5 M (HS 578T) | GI% at 10^−5 M (HT29) | GI% at 10^−5 M (K-562) | GI% at 10^−5 M (KM12) | GI% at 10^−5 M (LOX IMVI) | GI% at 10^−5 M (MDA-MB-231/ATCC) | GI% at 10^−5 M (MOLT-4) | GI% at 10^−5 M (NCI-H226) | GI% at 10^−5 M (NCI-H322M) | GI% at 10^−5 M (NCI-H460) | GI% at 10^−5 M (NCI-H522) | GI% at 10^−5 M (OVCAR-3) | GI% at 10^−5 M (OVCAR-5) | further results
1 | O=c1c2ccccc2nc(COc2ccccc2)n1N=CC=Cc1ccccc1 [Compound 6b, 2-(phenoxymethyl)-3-((3-phenylallylidene)amino)quinazolin-4(3H)-one] | – (– means GI < 10%) | – (– means GI < 10%) | – (– means GI < 10%) | – (– means GI < 10%) | 13.78 | – (– means GI < 10%) | – (– means GI < 10%) | – (– means GI < 10%) | – (– means GI < 10%) | – (– means GI < 10%) | – (– means GI < 10%) | 27.86% | – (– means GI < 10%) | – (– means GI < 10%) | – (– means GI < 10%) | – (– means GI < 10%) | – (– means GI < 10%) | 18.6% | – (– means GI < 10%) | – (– means GI < 10%) | GI% at 10^−5 M (SF-539): – (– means GI < 10%); GI% at 10^−5 M (SK-MEL-28): – (– means GI < 10%); GI% at 10^−5 M (SNB-19): 17.13%; GI% at 10^−5 M (SNB-75): 16.57%; GI% at 10^−5 M (SR): 14.34%; GI% at 10^−5 M (SW-620): – (– means GI < 10%); GI% at 10^−5 M (TK-10): – (– means GI < 10%); GI% at 10^−5 M (U251): – (– means GI < 10%); GI% at 10^−5 M (UACC-257): – (– means GI < 10%); GI% at 10^−5 M (UACC-62): – (– means GI < 10%); GI% at 10^−5 M (UO-31): 10.2%; melting point: 211 to 213 °C
2 | O=c1c2ccccc2nc(COc2ccccc2)n1NS(=O)(=O)c1ccccc1 [Compound 5a, N-(4-oxo-2-(phenoxymethyl)quinazolin-3(4H)-yl)benzenesulfonamide] | – (– means GI < 10%) | – (– means GI < 10%) | – (– means GI < 10%) | – (– means GI < 10%) | 15.21 | – (– means GI < 10%) | 16.59% | – (– means GI < 10%) | – (– means GI < 10%) | – (– means GI < 10%) | – (– means GI < 10%) | – (– means GI < 10%) | 13.77% | – (– means GI < 10%) | – (– means GI < 10%) | – (– means GI < 10%) | – (– means GI < 10%) | – (– means GI < 10%) | – (– means GI < 10%) | – (– means GI < 10%) | GI% at 10^−5 M (SF-539): – (– means GI < 10%); GI% at 10^−5 M (SK-MEL-28): – (– means GI < 10%); GI% at 10^−5 M (SNB-19): – (– means GI < 10%); GI% at 10^−5 M (SNB-75): 40.06%; GI% at 10^−5 M (SR): – (– means GI < 10%); GI% at 10^−5 M (SW-620): – (– means GI < 10%); GI% at 10^−5 M (TK-10): – (– means GI < 10%); GI% at 10^−5 M (U251): – (– means GI < 10%); GI% at 10^−5 M (UACC-257): – (– means GI < 10%); GI% at 10^−5 M (UACC-62): – (– means GI < 10%); GI% at 10^−5 M (UO-31): 18.13%; melting point: 114 to 116 °C
